Assay [1] concerns PC-12. Briefly: Cytoprotective activity against H2O2-induced oxidative damage in rat PC12 cells assessed as late apoptotic cells at 10 uM preincubated for 24 hrs followed by annexin V-FITC/propidium iodide staining-based flow cytometric method (reference value: 10.7%). Type of assay: functional.
Assay [2] concerns PC-12. Briefly: Cytoprotective activity against H2O2-induced oxidative damage in rat PC12 cells assessed as viable cells at 10 uM preincubated for 24 hrs followed by H2O2 addition measured after 24 hrs by annexin V-FITC/propidium iodide staining-based flow cytometric method (reference value: 85.2%). Particulars: read-out: Activity. It counts as functional. For orientation: Flow cytometry measures light scatter and fluorescence of single cells or particles in a stream.

In assay [3] the test system is PC-12. The assay is described as follows: Cytoprotective activity against H2O2-induced oxidative damage in rat PC12 cells assessed as necrotic cells at 10 uM preincubated for 24 hrs followed by H2O2 addition measured after 24 hrs by annexin V-FITC/propidium iodide staining-based flow cytometric method (reference value: 3.47%). It counts as functional.
In assay [4] the test system is PC-12. The assay is described as follows: Cytoprotective activity against H2O2-induced oxidative damage in rat PC12 cells assessed as early apoptotic cells at 10 uM preincubated for 24 hrs followed by H2O2 addition measured after 24 hrs by annexin V-FITC/propidium iodide staining-based flow cytometric method (reference value: 0.558%). It counts as functional.
Assay [5] deals with PC-12. The assay is described as follows: Cytoprotective activity against H2O2-induced oxidative damage in rat PC12 cells assessed as early apoptotic cells at 2.5 uM preincubated for 24 hrs followed by H2O2 addition measured after 24 hrs by annexin V-FITC/propidium iodide staining-based flow cytometric method (reference value: 0.558%). It counts as functional.
Assay [6] relates to PC-12. Briefly: Cytoprotective activity against H2O2-induced oxidative damage in rat PC12 cells assessed as necrotic cells at 5 uM preincubated for 24 hrs followed by H2O2 addition measured after 24 hrs by annexin V-FITC/propidium iodide staining-based flow cytometric method (reference value: 3.47%). It counts as functional.
Assay [7] concerns PC-12. Briefly: Cytoprotective activity against H2O2-induced oxidative damage in rat PC12 cells preincubated for 24 hrs followed by H2O2 addition measured after 24 hrs by annexin V-FITC/propidium iodide staining-based flow cytometric method. Type of assay: functional, cell-based.
The target in assay [8] is T1, Nuclear factor erythroid 2-related factor 2 (Rattus norvegicus) (UniProt O54968).
T1 sequence (whole entry): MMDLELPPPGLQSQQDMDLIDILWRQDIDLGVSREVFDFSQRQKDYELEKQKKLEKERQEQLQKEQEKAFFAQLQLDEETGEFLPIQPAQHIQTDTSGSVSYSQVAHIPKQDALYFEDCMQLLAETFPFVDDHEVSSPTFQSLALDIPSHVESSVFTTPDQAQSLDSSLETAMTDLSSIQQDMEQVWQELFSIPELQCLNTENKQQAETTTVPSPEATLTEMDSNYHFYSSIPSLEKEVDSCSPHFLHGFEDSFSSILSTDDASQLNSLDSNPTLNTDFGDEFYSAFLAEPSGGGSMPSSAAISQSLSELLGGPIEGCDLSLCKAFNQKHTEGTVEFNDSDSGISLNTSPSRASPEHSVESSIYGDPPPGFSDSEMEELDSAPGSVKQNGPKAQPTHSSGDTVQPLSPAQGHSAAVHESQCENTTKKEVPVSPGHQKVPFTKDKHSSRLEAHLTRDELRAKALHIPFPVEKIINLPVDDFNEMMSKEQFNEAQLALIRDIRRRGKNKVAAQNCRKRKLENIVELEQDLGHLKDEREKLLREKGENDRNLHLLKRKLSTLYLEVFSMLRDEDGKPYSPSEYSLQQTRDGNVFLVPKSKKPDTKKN
The assay is described as follows: Induction of Nrf2 activity in rat PC12 cells assessed as upregulation of GCLC levels after 24 hrs by Western blot method. Type of assay: cell-based. For orientation: In western blotting, separated proteins are transferred to a membrane and probed.

Assay [9] has as its system PC-12. The assay is described as follows: Cytoprotective activity against H2O2-induced oxidative damage in rat PC12 cells assessed as increase in cell viability preincubated for 24 hrs followed by H2O2 addition measured after 24 hrs by MTT assay. It counts as functional, cell-based. Background: Tetrazolium assays rely on reduction of a dye to a coloured formazan, in cell work by metabolically active cells.

A short description of assay [10]: Antioxidant activity assessed as DPPH radical scavenging activity relative to edaravone. Type of assay: functional.
The test system of assay [11] is PC-12. Briefly: Cytoprotective activity against H2O2-induced oxidative damage in rat PC12 cells assessed as viable cells at 5 uM preincubated for 24 hrs followed by H2O2 addition measured after 24 hrs by annexin V-FITC/propidium iodide staining-based flow cytometric method (reference value: 85.2%). It counts as functional. Particulars: read-out: Activity.
Assay [12] relates to PC-12. Briefly: Cytoprotective activity against H2O2-induced oxidative damage in rat PC12 cells assessed as late apoptotic cells at 2.5 uM preincubated for 24 hrs followed by H2O2 addition measured after 24 hrs by annexin V-FITC/propidium iodide staining-based flow cytometric method (reference value: 10.7%). It counts as functional.
Assay [13] concerns PC-12. Briefly: Cytoprotective activity against H2O2-induced oxidative damage in rat PC12 cells assessed as necrotic cells at 2.5 uM preincubated for 24 hrs followed by H2O2 addition measured after 24 hrs by annexin V-FITC/propidium iodide staining-based flow cytometric method (reference value: 3.47%). Type of assay: functional.
In assay [14] the test system is PC-12. Briefly: Cytoprotective activity against H2O2-induced oxidative damage in rat PC12 cells assessed as early apoptotic cells at 5 uM preincubated for 24 hrs followed by H2O2 addition measured after 24 hrs by annexin V-FITC/propidium iodide staining-based flow cytometric method (reference value: 0.558%). Type of assay: functional.
Assay [15] deals with T1, Nuclear factor erythroid 2-related factor 2 (Rattus norvegicus). The assay is described as follows: Induction of Nrf2 activity in rat PC12 cells assessed as upregulation of GCLC mRNA levels at 2.5 to 10 uM after 24 hrs by RT-PCR method. Type of assay: cell-based.
Assay [16] in a line: Antioxidant activity assessed as DPPH radical scavenging activity relative to tBHQ. Type of assay: functional.
For assay [17], the target named is T1, Nuclear factor erythroid 2-related factor 2 (Rattus norvegicus). Briefly: Induction of Nrf2 nuclear translocation in rat PC12 cells at 10 uM after 6 hrs by DAPI staining-based immunofluorescence method. It counts as cell-based.
The test system of assay [18] is PC-12. The assay is described as follows: Cytoprotective activity against H2O2-induced oxidative damage in rat PC12 cells assessed as late apoptotic cells at 5 uM preincubated for 24 hrs followed by H2O2 addition measured after 24 hrs by annexin V-FITC/propidium iodide staining-based flow cytometric method (reference value: 10.7%). It counts as functional.
The test system of assay [19] is PC-12. The assay is described as follows: Cytoprotective activity against H2O2-induced oxidative damage in rat PC12 cells assessed as viable cells at 2.5 uM preincubated for 24 hrs followed by H2O2 addition measured after 24 hrs by annexin V-FITC/propidium iodide staining-based flow cytometric method (reference value: 85.2%). Type of assay: functional. Particulars: read-out: Activity.

Assay [20] relates to PC-12. Briefly: Cytoprotective activity against H2O2-induced oxidative damage in rat PC12 cells assessed as increase in cell viability at 10 uM preincubated for 24 hrs followed by H2O2 addition measured after 24 hrs in presence of GCLC inhibitor BSO by MTT assay. Type of assay: functional, cell-based.

The record followed here is ChEMBL document CHEMBL4004867, “Novel antioxidants' synthesis and their anti-oxidative activity through activating Nrf2 signaling pathway” (2017).

The source made the active and inactive calls. The rule behind the calls is not given here.

Regarding `CC1=NN(c2ccccc2)C(=O)C1` [EDARAVONE], the Activity is given as 1.92% with PC-12 [1], 1.85% in the assay on PC-12 [3] and 1.17% in the assay on PC-12 [4]. Also, in the assay on PC-12 [2], the viability at 10 µM was determined as 95.1%.

Regarding `CCC(=O)N1NC(c2cc(OC)c(OC)c(OC)c2)C2=C1CCC2` (stereo not drawn), the Activity in the assay on PC-12 [5] is 1.46%; with PC-12 [6], 1.46%; in the assay on PC-12 [7] it was “Dose-dependent effect”; in the assay with PC-12 [1], 2.27%; in assay [8], “Dose-dependent effect”; with PC-12 [9], “Dose-dependent effect”. In addition, the Activity with PC-12 [12] turned out to be 2.65%; in the assay with PC-12 [13], 1.69%; in the assay on PC-12 [14], 2.64%; in the assay with PC-12 [18], 2.44%; in the assay on PC-12 [3] it was 2.96%; with PC-12 [4], 1.64%. Besides, the fold change (FC) in assay [10] and in [16] was 0.5 in each case. Also, the viability at 5 µM with PC-12 [11] turned out to be 93.5%. Moreover, the outcome in assay [15] and in assay [17] was Active. Also, the viability at 10 µM with PC-12 [2] was found to be 93.1%. Besides, the viability at 2.5 µM in the assay with PC-12 [19] amounted to 94.2%. Also, the result in the assay with PC-12 [20] was inactive.

Consider `CC(C)(C)c1cc(O)ccc1O` [E319], for which the Activity turned out to be 0.882% in the assay with PC-12 [1], 0.882% in the assay on PC-12 [3] and 1.1% with PC-12 [4]. The viability at 10 µM in the assay on PC-12 [2] is 97.1%.
